Patent US11548868B2, “Heterocyclic compounds, compositions comprising heterocyclic compound, and methods of use thereof” (JS INNOPHARM (SHANGHAI) LTD, priority 2017, dated 2023)
Where a name gives a salt, the structure may show the parent alone.

Tests used:
[1] = molecular target: T1, IDO1 in Hela cancer cells (Homo sapiens, UniProt P14902); assay: IDO1 Cellular Assay (kynurenine production in IFN-γ stimulated Hela cancer cells); assay type: cell-based; conditions: human IFN-γ 50 ng/mL, 48 hours incubation, kynurenine at 490 nm
T1 construct: endogenous in cells; host or cells: Hela cancer cells stimulated with human IFN-γ
T1 sequence (P14902 whole entry): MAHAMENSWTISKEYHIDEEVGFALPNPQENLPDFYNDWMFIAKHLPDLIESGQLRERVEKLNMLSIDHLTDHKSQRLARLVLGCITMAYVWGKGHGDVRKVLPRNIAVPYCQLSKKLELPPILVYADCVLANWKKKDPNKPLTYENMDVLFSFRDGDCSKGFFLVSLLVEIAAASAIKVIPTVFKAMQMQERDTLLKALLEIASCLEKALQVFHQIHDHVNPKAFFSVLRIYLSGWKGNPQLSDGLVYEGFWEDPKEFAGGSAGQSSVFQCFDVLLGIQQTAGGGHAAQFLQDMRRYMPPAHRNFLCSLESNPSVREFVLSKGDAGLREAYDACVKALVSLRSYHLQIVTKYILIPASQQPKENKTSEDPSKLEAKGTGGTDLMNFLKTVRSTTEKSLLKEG
Procedure: Hela cancer cells (5×10^3 per well) with 85 μL DMEM medium containing 10% FBS were seeded in a 96-well plate and incubated at 95% humidity and 5% CO2 at 37° C. for 24 hours. human IFN-γ (10 μL, 50 ng/mL final concentration) and 5 μL serial dilutions of the test compounds were added into each well. The test compounds were dissolved in DMSO, and successively diluted with pH7.5 buffer (with final DMSO concentration of 0.25%) resulting in final concentrations of the test compounds ranging from 0 to 25 μM (0, 2.5, 7.5, 25, 75, 250, 750, 2500, 7500, & 25000 nM). After 48 hours of incubation, 70 uL of the supernatant per well was transferred to a new 96 well plate. Trichloroacetic acid (6.1 N, 8 μL) was mixed into each well and incubated at 50° C. for 30 min to hydrolyze N-formylkynurenine produced by IDO to kynurenine. The reaction mixture was then centrifuged for 10 min at 2500 RPM to remove sediments. 50 μL of the supernatant per well was transferred to another 96 well plate and mixed with 50 uL of 2% (w/v) p-dimethylaminobenzaldehyde in acetic acid. The yellow color derived from kynurenine was measured at 490 nm using a microplate reader. Percent inhibition of the test compounds was determined by measuring the decrease in kynurenine as compared to the control of DMSO vehicle, which was calculated by formula of (WC-WT)/WC, where WC is the mean absorbance of the control well minus blank well; WT is the mean absorbance of the test well minus the blank well. Data was analyzed by GraphPad Prism 5 and the IC50 values were obtained by non-linear regression.
(§1) The IC50 values of for Compounds disclosed are listed in Table 2, A′: ≤0.5 μM; B′: >0.5 μM and ≤1 μM; C′: >1.0 μM and ≤5 uM; and D′: >5 μM.

[2] = molecular target: T2, TDO2 in A172 cancer cells (Homo sapiens, UniProt P48775); assay: TDO2 Cellular Assay (kynurenine production in A172 cancer cells); assay type: cell-based; conditions: L-Trp 1 mM, 24 hours incubation, kynurenine at 490 nm
T2 construct: endogenous in cells; host or cells: A172 cancer cells
T2 sequence (P48775 whole entry): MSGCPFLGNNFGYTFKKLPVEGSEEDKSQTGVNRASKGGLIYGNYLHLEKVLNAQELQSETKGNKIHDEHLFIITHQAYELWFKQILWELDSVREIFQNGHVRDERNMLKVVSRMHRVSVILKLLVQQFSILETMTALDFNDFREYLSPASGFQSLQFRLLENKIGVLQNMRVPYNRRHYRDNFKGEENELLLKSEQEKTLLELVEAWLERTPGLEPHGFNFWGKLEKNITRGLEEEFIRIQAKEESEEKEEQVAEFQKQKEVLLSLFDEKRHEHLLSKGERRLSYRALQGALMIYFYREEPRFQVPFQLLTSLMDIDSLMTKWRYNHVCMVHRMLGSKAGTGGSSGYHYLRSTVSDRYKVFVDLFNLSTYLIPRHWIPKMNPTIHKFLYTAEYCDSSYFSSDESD
Procedure: A172 cancer cells (3×10^4 per well) in 85 μL DMEM medium containing 10% FBS were seeded in a 96-well plate and incubated at 95% humidity and 5% CO2 at 37° C. for overnight. On the next day, L-Trp solution (10 μL, 1 mM final concentration) and serial dilutions of the test compounds and DMEM medium resulting in a total final volume of 100 μL each well. The test compounds were dissolved in DMSO and successively diluted with pH7.5 butter (with final DMSO concentration of 0.25%) resulting in final concentrations of the test compounds ranging from 0 to 25 μM (0, 2.5, 7.5, 25, 75, 250, 750, 2500, 7500, & 25000 nM). After 24 hours of incubation, 70 uL of the supernatant per well was transferred to a new 96 well plate. 8 μL of trichloroacetic acid (6.1 N) was mixed into each well and incubated at 50° C. for 30 min to hydrolyze N-formylkynurenine to kynurenine. The reaction mixture was then centrifuged for 10 min at 2500 RPM to remove sediments. 50 μL of the supernatant per well was transferred to another 96 well plate and mixed with 50 μL of 2% (w/v) p-dimethylaminobenzaldehyde in acetic acid. The yellow color derived from kynurenine was measured at 490 nm using a microplate reader. Percent inhibition of the test compounds was determined by measuring the decrease in kynurenine as compared to the control of DMSO vehicle, which was calculated by formula of (WC−WT)/WC, where WC is the mean absorbance of the control well minus blank well; WT is the mean absorbance of the test well minus the blank well. Data was analyzed by GraphPad Prism 5 and the IC50 values were obtained by non-linear regression.
as §1

SMILES | IC50 [1] | IC50 [2]
CC(=O)N1C[C@@H]2CN(c3cc(Cl)cn4cncc34)C[C@@H]2C1(C)C (racemic) [Example 41, Racemic-1-((3aS,6aR)-5-(6-chloroimidazo[1,5-a]pyridin-8-yl)-1,1-dimethylhexahydropyrrolo[3,4-c]pyrrol-2(1H)-yl)ethanone] | > 5 µM | 1 to 5 µM
CC(=O)N1C[C@@H]2CN(c3cc(Cl)cc4cncn34)C[C@@H]2C1(C)C (racemic) [Example 43, Racemic-1-((3aS,6aR)-5-(7-chloroimidazo[1,5-a]pyridin-5-yl)-1,1-dimethylhexahydropyrrolo[3,4-c]pyrrol-2(1H)-yl)ethanone] | > 5 µM | > 5 µM
CC1(C)[C@H]2CN(c3cc(Cl)cc4cncn34)C[C@H]2CN1S(C)(=O)=O (racemic) [Example 44, Racemic-7-chloro-5-((3aR,6aS)-4,4-dimethyl-5-(methylsulfonyl)hexahydropyrrolo[3,4-c]pyrrol-2(1H)-yl)imidazo[1,5-a]pyridine] | > 5 µM | > 5 µM
CC(=O)N1C[C@@H]2CN(c3cc(C(F)(F)F)cn4cncc34)C[C@@H]2C1(C)C (racemic) [Example 45, Racemic-1-((3aS,6aR)-1,1-dimethyl-5-(6-(trifluoromethyl)imidazo[1,5-a]pyridin-8-yl)hexahydropyrrolo[3,4-c]pyrrol-2(1H)-yl)ethanone] | > 5 µM | 1 to 5 µM
CC1(C)[C@H]2CN(c3cc(C(F)(F)F)cn4cncc34)C[C@H]2CN1S(C)(=O)=O (racemic) [Example 46, Racemic-8-((3aR,6aS)-4,4-dimethyl-5-(methylsulfonyl)hexahydropyrrolo[3,4-c]pyrrol-2(1H)-yl)-6-(trifluoromethyl)imidazo[1,5-a]pyridine] | > 5 µM | 1 to 5 µM
CC(=O)N1C[C@@H]2CN(c3c(C(F)(F)F)ccc4cncn34)C[C@@H]2C1(C)C (racemic) [Example 47, Racemic-1-((3aS,6aR)-1,1-dimethyl-5-(6-(trifluoromethyl)imidazo[1,5-a]pyridin-5-yl)hexahydropyrrolo[3,4-c]pyrrol-2(1H)-yl)ethanone] | > 5 µM | > 5 µM
CCC(=O)N[C@H]1[C@@H]2C[C@@](O)(c3cc(Cl)cc4[nH]ncc34)C[C@@H]21 [Example 82, N-((1R,3r,5S,6r)-3-(6-chloro-1H-indazol-4-yl)-3-hydroxybicyclo[3.1.0]hexan-6-yl)propionamide] | – | ≤ 0.5 µM
O=C(N[C@H]1[C@@H]2C[C@@](O)(c3cc(Cl)cc4[nH]ncc34)C[C@@H]21)C1CCC1 [Example 84, N-((1R,3r,5S,6r)-3-(6-chloro-1H-indazol-4-yl)-3-hydroxybicyclo[3.1.0]hexan-6-yl)cyclobutanecarboxamide] | – | ≤ 0.5 µM
O=C(N[C@H]1[C@@H]2C[C@@](O)(c3cc(Cl)cc4[nH]ncc34)C[C@@H]21)C1CCCCC1 [Example 85, N-((1R,3r,5S,6r)-3-(6-chloro-1H-indazol-4-yl)-3-hydroxybicyclo[3.1.0]hexan-6-yl)cyclohexanecarboxamide] | – | ≤ 0.5 µM
CC(C)OC(=O)N[C@H]1[C@@H]2C[C@@](O)(c3cc(Cl)cc4[nH]ncc34)C[C@@H]21 [Example 86, isopropyl ((1R,3r,5S,6r)-3-(6-chloro-1H-indazol-4-yl)-3-hydroxybicyclo[3.1.0]hexan-6-yl)carbamate] | – | ≤ 0.5 µM
O=C(C1CCOCC1)N1C[C@@H]2C[C@@](O)(c3cc(Cl)cc4[nH]ncc34)C[C@@H]2C1 [Example 88, ((3aR,5r,6aS)-5-(6-chloro-1H-indazol-4-yl)-5-hydroxyhexahydrocyclopenta[c]pyrrol-2(1H)-yl)(tetrahydro-2H-pyran-4-yl)methanone] | – | ≤ 0.5 µM
CC(C)(C)C(=O)N[C@H]1[C@@H]2C[C@@](O)(c3cc(Cl)cc4[nH]ncc34)C[C@@H]21 [Example 90, N-((1R,3r,5S,6r)-3-(6-chloro-1H-indazol-4-yl)-3-hydroxybicyclo[3.1.0]hexan-6-yl)pivalamide] | – | ≤ 0.5 µM
O=C(N[C@H]1[C@@H]2C[C@@](O)(c3cc(Cl)cc4[nH]ncc34)C[C@@H]21)C1CCOCC1 [Example 91, N-((1R,3r,5S,6r)-3-(6-chloro-1H-indazol-4-yl)-3-hydroxybicyclo[3.1.0]hexan-6-yl)tetrahydro-2H-pyran-4-carboxamide] | – | ≤ 0.5 µM
CC(C)C(=O)N[C@H]1[C@@H]2C[C@@](O)(c3cc(Cl)cc4[nH]ncc34)C[C@@H]21 [Example 92, N-((1R,3r,5S,6r)-3-(6-chloro-1H-indazol-4-yl)-3-hydroxybicyclo[3.1.0]hexan-6-yl)isobutyramide] | – | ≤ 0.5 µM
O=S(=O)(N[C@H]1[C@@H]2C[C@@](O)(c3cc(Cl)cc4[nH]ncc34)C[C@@H]21)C1CCOCC1 [Example 94, N-((1R,3r,5S,6r)-3-(6-chloro-1H-indazol-4-yl)-3-hydroxybicyclo[3.1.0]hexan-6-yl)tetrahydro-2H-pyran-4-sulfonamide] | – | ≤ 0.5 µM
NCC(=O)N[C@H]1[C@@H]2C[C@@](O)(c3cc(Cl)cc4[nH]ncc34)C[C@@H]21 [Example 103, 2-amino-N-((1R,3r,5S,6r)-3-(6-chloro-1H-indazol-4-yl)-3-hydroxybicyclo[3.1.0]hexan-6-yl)acetamide hydrochloride] | – | 1 to 5 µM

Next, values leading:

IC50 [1] | IC50 [2] | SMILES
– | ≤ 0.5 µM | O=C(N[C@H]1[C@@H]2C[C@@](O)(c3cc(Cl)cc4[nH]ncc34)C[C@@H]21)C1CCCO1 (stereo partly drawn) [Example 75, N-((1R,3r,5S,6r)-3-(6-chloro-1H-indazol-4-yl)-3-hydroxybicyclo[3.1.0]hexan-6-yl)tetrahydrofuran-2-carboxamide]
– | ≤ 0.5 µM | O=C(N[C@H]1[C@@H]2C[C@@](O)(c3cc(Cl)cc4[nH]ncc34)C[C@@H]21)C1CC1 [Example 76, N-((1R,3r,5S,6r)-3-(6-chloro-1H-indazol-4-yl)-3-hydroxybicyclo[3.1.0]hexan-6-yl)cyclopropanecarboxamide]
– | ≤ 0.5 µM | CC(C)S(=O)(=O)N[C@H]1[C@@H]2C[C@@](O)(c3cc(Cl)cc4[nH]ncc34)C[C@@H]21 [Example 77, N-((1R,3r,5S,6r)-3-(6-chloro-1H-indazol-4-yl)-3-hydroxybicyclo[3.1.0]hexan-6-yl)propane-2-sulfonamide]
– | ≤ 0.5 µM | O=S(=O)(N[C@H]1[C@@H]2C[C@@](O)(c3cc(Cl)cc4[nH]ncc34)C[C@@H]21)C1CCCCC1 [Example 78, N-((1R,3r,5S,6r)-3-(6-chloro-1H-indazol-4-yl)-3-hydroxybicyclo[3.1.0]hexan-6-yl)cyclohexanesulfonamide]
– | ≤ 0.5 µM | O=C(N[C@H]1[C@@H]2C[C@@](O)(c3cc(Cl)cc4[nH]ncc34)C[C@@H]21)C1CCCC1 [Example 79, N-((1R,3r,5S,6r)-3-(6-chloro-1H-indazol-4-yl)-3-hydroxybicyclo[3.1.0]hexan-6-yl)cyclopentanecarboxamide]
– | ≤ 0.5 µM | COC(=O)N[C@H]1[C@@H]2C[C@@](O)(c3cc(Cl)cc4[nH]ncc34)C[C@@H]21 [Example 80, methyl ((1R,3r,5S,6r)-3-(6-chloro-1H-indazol-4-yl)-3-hydroxybicyclo[3.1.0]hexan-6-yl)carbamate]
– | ≤ 0.5 µM | CCOC(=O)N[C@H]1[C@@H]2C[C@@](O)(c3cc(Cl)cc4[nH]ncc34)C[C@@H]21 [Example 81, ethyl ((1R,3r,5S,6r)-3-(6-chloro-1H-indazol-4-yl)-3-hydroxybicyclo[3.1.0]hexan-6-yl)carbamate]
